Experimental data: article PMC5623949, “Exploiting the 2-Amino-1,3,4-thiadiazole Scaffold To Inhibit Trypanosoma brucei Pteridine Reductase in Support of Early-Stage Drug Discovery” (ACS Omega, 2017)
Where two headings read alike, the source gives them in different places.

Legend:
[1] = test system: T. b. brucei Lister 427 bloodstream forms; experiment: In vitro activity against T. brucei (HTS SYBR Green I growth inhibition assay); type: cell-based, Trypanosoma brucei brucei; conditions: Trypanosoma brucei, standard deviation within ±10% of the value; for inhibition at 50 µM: read-out: % Inhibition T. brucei at 50 μM
hERG = biological target: T1, hERG (Homo sapiens, UniProt Q12809); parameters: hERG inhibition liability assay
T1 construct: gene KCNH2
T1 sequence (Q12809 whole entry): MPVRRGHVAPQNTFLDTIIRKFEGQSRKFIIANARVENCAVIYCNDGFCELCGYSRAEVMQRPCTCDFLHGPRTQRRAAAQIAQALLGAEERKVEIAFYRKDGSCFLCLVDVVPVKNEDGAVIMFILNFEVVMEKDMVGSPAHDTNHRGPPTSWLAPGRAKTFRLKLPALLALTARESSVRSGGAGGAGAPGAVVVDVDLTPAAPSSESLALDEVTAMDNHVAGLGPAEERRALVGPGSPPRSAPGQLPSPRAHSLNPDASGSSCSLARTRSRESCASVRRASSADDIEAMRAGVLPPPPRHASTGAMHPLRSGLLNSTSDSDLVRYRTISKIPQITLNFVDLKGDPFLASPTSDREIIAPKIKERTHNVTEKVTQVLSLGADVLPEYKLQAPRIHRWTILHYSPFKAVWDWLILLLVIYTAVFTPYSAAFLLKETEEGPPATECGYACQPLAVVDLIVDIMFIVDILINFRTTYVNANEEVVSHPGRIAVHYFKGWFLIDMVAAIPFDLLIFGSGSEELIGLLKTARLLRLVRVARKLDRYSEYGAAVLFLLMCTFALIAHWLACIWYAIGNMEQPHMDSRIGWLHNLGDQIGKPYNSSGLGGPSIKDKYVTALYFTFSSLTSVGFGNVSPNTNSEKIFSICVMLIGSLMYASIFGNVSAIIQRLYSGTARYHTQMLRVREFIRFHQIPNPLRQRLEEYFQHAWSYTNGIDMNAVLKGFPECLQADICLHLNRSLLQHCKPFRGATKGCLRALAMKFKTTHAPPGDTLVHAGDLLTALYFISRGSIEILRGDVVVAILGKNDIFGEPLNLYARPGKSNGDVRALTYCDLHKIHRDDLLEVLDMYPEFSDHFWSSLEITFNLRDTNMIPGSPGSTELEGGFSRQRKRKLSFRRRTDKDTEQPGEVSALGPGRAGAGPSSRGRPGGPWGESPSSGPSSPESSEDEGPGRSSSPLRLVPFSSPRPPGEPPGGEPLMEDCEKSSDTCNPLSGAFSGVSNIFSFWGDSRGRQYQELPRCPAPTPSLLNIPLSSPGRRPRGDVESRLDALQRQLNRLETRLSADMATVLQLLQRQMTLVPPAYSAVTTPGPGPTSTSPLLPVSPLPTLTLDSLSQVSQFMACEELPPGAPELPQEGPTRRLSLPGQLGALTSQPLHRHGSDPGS
Description: (§1) Independent of the effect of any antiparasitic potential of compounds, they were evaluated using a panel of early-toxicity assays comprising cytotoxicity (A549, human lung adenocarcinoma epithelial cell line and WI-38, human lung fibroblasts), mitochondrial toxicity (786-O, human renal carcinoma cell line), hERG inhibition,[31] cytochrome P450 inhibition (CYP1A2, CYP2C9, CYP2C19, CYP2D6, and CYP3A4),[31] and Aurora B kinase inhibition. […] For the two compounds active against TbPTR1 (4m and 4o), IC50 against hERG, cytochrome P450, and mitochondrial toxicity were determined (reported in Supporting Information). We observed that the dose of compounds 4m, 4o, 4c, and 3k was 4 μM in the potentiation assays. […] In the case of hERG, CYP2D6, CYP2A9, CYP2C19, and mitochondrial toxicity, there is a selectivity index of around 3–4 fold, thus showing an acceptable profile.  Figure 10 Summary heat map of the in vitro assays to determine possible liability issues for all synthesized compounds. Assays were performed to assess inhibition of hERG and five CYP isoforms (1A2, 2C9, 2C19, 2D6, and 3A4), growth inhibition of A549 and W1-38 cell lines, and mitochondrial toxicity at 10 μM. The hDHFR inhibition was determined at 100 μM. The data, expressed as percentage values, were organized by adopting a color code for rapid and intuitive visualization. The ideal compound should have all tiles blue, indicating a safe toxicological profile for progressing into the development pipeline. The cells are colored from blue (100% of cell growth at the tested concentration) to red (0% of cell growth at the tested concentration) for A549 and W1-38 and from blue (0% of inhibitory activity at the tested concentration) to red (100% of inhibitory activity at the tested concentration) for CYP isoforms, hERG, hDHFR, and mitochondrial toxicity.

in vitro [2] = experiment: in vitro; parameters: cytotoxicity, per cent cell growth of A549 cells; conditions: human, a549 cells; read-out: % cell growth A549 at 10uM
Description: as §1

786-O = experiment: cells; parameters: mitochondrial toxicity in 786-O renal carcinoma cells; conditions: Homo sapiens, 786-0; mitochondrial toxicity
Description: as §1

TbPTR1 = biological target: T2, TbPTR1 (Trypanosoma brucei brucei, UniProt O76290); experiment: biochemical; conditions: for inhibition at 50 µM: 50 μM compound, read-out: % Inhibition TbPTR1 at 50 μM
T2 construct: made in house
T2 sequence (O76290 1-268): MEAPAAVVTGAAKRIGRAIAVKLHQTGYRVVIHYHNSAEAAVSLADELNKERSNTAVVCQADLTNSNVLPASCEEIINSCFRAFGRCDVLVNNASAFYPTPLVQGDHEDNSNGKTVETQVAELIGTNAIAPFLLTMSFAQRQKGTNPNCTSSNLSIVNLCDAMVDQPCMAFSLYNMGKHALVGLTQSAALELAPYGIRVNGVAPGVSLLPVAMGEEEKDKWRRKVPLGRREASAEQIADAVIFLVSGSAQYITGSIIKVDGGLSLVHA

in vitro [3] = experiment: in vitro; parameters: cytotoxicity, per cent cell growth of WI-38 fibroblasts; conditions: human, wi-38 cells; read-out: % cell growth W1-38 at 10uM
Description: as §1

CYP2D6 = CYP2D6 (Homo sapiens, UniProt P10635); experiment: in vitro; parameters: cytochrome P450 isoform inhibition liability assay
Sequence of CYP2D6 (P10635 whole entry, canonical isoform): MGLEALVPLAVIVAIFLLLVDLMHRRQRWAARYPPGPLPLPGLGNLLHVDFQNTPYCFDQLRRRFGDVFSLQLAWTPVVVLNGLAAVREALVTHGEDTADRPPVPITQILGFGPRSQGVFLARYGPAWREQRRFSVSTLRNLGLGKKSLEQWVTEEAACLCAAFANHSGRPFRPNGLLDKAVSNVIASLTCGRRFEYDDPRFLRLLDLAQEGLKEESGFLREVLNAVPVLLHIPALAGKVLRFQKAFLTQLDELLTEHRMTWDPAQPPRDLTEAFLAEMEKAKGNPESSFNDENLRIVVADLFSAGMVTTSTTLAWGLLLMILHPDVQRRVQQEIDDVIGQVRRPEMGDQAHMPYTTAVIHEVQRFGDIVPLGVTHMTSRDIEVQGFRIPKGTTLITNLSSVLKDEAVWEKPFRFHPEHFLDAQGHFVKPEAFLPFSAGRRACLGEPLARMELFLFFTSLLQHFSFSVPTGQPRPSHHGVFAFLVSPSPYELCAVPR
Description: as §1

CYP3A4 = CYP3A4 (Homo sapiens, UniProt P08684); experiment: in vitro; parameters: cytochrome P450 isoform inhibition liability assay
Sequence of CYP3A4 (P08684 whole entry, canonical isoform): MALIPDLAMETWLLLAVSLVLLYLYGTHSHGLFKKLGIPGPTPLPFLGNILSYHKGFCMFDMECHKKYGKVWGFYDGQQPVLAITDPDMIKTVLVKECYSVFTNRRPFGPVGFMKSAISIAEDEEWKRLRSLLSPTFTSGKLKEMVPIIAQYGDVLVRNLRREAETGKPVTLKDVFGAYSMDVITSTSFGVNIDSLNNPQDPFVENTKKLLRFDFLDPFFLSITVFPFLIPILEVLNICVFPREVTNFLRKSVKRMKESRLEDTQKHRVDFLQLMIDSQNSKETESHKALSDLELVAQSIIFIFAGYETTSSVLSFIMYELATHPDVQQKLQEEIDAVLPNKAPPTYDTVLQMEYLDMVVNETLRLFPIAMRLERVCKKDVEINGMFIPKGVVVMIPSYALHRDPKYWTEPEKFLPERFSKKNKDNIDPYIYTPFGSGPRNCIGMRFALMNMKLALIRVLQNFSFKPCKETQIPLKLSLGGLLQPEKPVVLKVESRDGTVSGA
Description: as §1

CYP2C19 = CYP2C19 (Homo sapiens, UniProt P33261); experiment: in vitro; parameters: cytochrome P450 isoform inhibition liability assay
Sequence of CYP2C19 (P33261 whole entry, canonical isoform): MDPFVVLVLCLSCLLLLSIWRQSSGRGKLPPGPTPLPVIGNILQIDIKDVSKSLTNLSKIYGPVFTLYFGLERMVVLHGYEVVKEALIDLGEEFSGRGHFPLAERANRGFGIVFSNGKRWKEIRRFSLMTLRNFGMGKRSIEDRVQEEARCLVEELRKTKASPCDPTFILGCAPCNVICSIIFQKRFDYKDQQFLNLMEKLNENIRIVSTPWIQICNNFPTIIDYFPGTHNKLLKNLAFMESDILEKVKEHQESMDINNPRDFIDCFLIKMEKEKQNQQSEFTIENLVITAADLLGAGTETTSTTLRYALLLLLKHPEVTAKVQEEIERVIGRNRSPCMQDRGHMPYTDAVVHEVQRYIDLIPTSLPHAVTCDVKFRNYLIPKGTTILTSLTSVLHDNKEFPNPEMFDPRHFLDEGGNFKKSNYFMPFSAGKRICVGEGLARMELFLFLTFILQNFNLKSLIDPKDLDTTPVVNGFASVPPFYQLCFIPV
Description: as §1

CYP1A2 = biological target: T3, CYP1A2 (Homo sapiens, UniProt P05177); experiment: in vitro; parameters: cytochrome P450 isoform inhibition liability assay
T3 sequence (P05177 1-516): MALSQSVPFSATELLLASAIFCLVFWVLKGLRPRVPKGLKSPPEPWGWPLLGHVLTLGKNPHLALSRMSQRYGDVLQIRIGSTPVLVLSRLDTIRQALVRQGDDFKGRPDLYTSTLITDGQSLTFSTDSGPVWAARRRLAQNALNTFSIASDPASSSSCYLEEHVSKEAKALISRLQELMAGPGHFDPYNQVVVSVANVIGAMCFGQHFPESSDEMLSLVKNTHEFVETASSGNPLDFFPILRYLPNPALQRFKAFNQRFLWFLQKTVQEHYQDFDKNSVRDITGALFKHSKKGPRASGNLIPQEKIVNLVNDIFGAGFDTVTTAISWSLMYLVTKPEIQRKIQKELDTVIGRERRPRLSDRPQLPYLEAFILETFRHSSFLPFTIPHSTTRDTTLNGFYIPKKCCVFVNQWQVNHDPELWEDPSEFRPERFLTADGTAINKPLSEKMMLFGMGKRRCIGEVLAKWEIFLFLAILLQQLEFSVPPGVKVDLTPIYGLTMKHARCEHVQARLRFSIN
Description: as §1

CYP2C9 = CYP2C9 (Homo sapiens, UniProt P11712); experiment: in vitro; parameters: cytochrome P450 isoform inhibition liability assay
Sequence of CYP2C9 (P11712 whole entry, canonical isoform): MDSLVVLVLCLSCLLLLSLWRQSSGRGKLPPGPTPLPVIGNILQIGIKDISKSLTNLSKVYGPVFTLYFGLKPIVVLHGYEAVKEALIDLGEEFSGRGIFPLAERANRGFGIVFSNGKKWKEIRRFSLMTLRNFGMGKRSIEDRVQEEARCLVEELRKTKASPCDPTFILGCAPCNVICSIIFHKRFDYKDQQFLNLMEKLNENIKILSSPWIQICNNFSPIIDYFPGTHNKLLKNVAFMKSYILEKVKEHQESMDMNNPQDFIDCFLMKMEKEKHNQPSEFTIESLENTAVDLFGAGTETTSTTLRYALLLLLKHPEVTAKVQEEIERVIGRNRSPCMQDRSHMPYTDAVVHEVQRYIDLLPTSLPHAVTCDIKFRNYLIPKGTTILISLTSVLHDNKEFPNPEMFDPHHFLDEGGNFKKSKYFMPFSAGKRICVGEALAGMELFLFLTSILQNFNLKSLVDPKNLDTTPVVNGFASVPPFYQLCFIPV
Description: as §1

hDHFR = biological target: T4, hDHFR (Homo sapiens, UniProt P00374); experiment: biochemical; parameters: human DHFR enzyme inhibition
T4 construct: gene DHFR
T4 sequence (P00374 1-187): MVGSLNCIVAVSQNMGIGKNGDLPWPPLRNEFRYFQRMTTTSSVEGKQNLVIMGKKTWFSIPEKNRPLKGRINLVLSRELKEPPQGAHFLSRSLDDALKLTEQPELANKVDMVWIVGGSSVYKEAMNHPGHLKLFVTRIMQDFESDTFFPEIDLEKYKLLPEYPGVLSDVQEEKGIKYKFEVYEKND
Description: Figure 10 Summary heat map of the in vitro assays to determine possible liability issues for all synthesized compounds. Assays were performed to assess inhibition of hERG and five CYP isoforms (1A2, 2C9, 2C19, 2D6, and 3A4), growth inhibition of A549 and W1-38 cell lines, and mitochondrial toxicity at 10 μM. The hDHFR inhibition was determined at 100 μM. The data, expressed as percentage values, were organized by adopting a color code for rapid and intuitive visualization. The ideal compound should have all tiles blue, indicating a safe toxicological profile for progressing into the development pipeline. The cells are colored from blue (100% of cell growth at the tested concentration) to red (0% of cell growth at the tested concentration) for A549 and W1-38 and from blue (0% of inhibitory activity at the tested concentration) to red (100% of inhibitory activity at the tested concentration) for CYP isoforms, hERG, hDHFR, and mitochondrial toxicity.

| inhibition at 25 µM (hDHFR; 25 uM) [%] | SMILES | inhibition at 50 µM [1] [%] | inhibition at 10 µM (hERG) [%] | viability at 10 µM (in vitro [2]) [%] | inhibition at 10 µM (786-O) [%] | inhibition at 50 µM (TbPTR1) [%] | viability at 10 µM (in vitro [3]) [%] | inhibition at 10 µM (CYP2D6) [%] | inhibition at 10 µM (CYP3A4) [%] | inhibition at 10 µM (CYP2C19) [%] | inhibition at 10 µM (CYP1A2) [%] | inhibition at 10 µM (CYP2C9) [%] | inhibition at 100 µM (hDHFR) [%] | EC50 ([1]; read-out: EC50 T. brucei) [µM] | times less active than 4o against TbPTR1 (TbPTR1) | IC50 (TbPTR1; dose-response 0.001-100 μM) [µM] |
| --- | --- | --- | --- | --- | --- | --- | --- | --- | --- | --- | --- | --- | --- | --- | --- | --- |
| – | Nc1nnc(-c2ccco2)s1 [1s] | < 0 | -3.8 ± 3.2 | 132 ± 9.6 | 1.9 ± 4.8 | 9 ± 0.8 | 138 ± 9.8 | -47.6 ± 4.7 | -14.9 ± 9.7 | -10.4 ± 22.5 | 0.3 ± 4.9 | -9 ± 3.5 | – | – | – | – |
| – | C[C@@H](c1cccc(C(=O)c2ccccc2)c1)c1nnc(N)s1 [3f] | 88 | 16 ± 6.3 | 134 ± 3.3 | -3.4 ± 2.1 | 47.2 ± 0.4 | 127 ± 21.4 | -12.7 ± 6.2 | 94.5 ± 0.8 | 39.3 ± 3.2 | -14.2 ± 7.1 | – | 51 | 20 | – | – |
| 37 | N#Cc1ccc(Cc2ccccc2-c2nnc(N)s2)cc1 [1n, 4-(2-(5-amino-1,3,4-thiadiazol-2-yl)benzyl)benzonitrile] | – | – | – | – | – | – | 75.4 ± 5.2 | 69.6 ± 3.25 | 104 ± 2 | 56.2 ± 0.5 | 59.8 ± 4.9 | – | – | – | – |
| – | Nc1nnc(Cc2cccc([N+](=O)[O-])c2)s1 [3c] | 0.8 | -1.8 ± 0.6 | 117 ± 3.5 | -4.11 ± 5.77 | 15.8 ± 0.5 | 88.4 ± 11.1 | -38.6 ± 16.3 | -16.9 ± 5.2 | -36.1 ± 11.8 | -10.9 ± 1.6 | -8.8 ± 3 | – | – | – | – |
| – | COc1cc(CNc2nnc(N)s2)cc(OC)c1OC [4k] | < 0 | 21.3 ± 27.9 | 116 ± 3.8 | -1.9 ± 14.9 | < 0 | 71.2 ± 3.6 | 23.6 ± 2.4 | 11.4 ± 3.6 | 0.2 ± 10.3 | 22.3 ± 4.1 | 20.2 ± 2.5 | – | – | – | – |
| – | Nc1nnc(NCCc2ccccc2)s1 [4n] | 4 | 91.4 ± 6.2 | 112 ± 5.4 | – | 36.7 ± 2 | 66.1 ± 3.1 | 103 ± 0.2 | 25.1 ± 4.3 | 29.2 ± 6.6 | 22.7 ± 1.9 | 30.4 ± 2.9 | 19 | – | about 3 times | 62 |
| – | Nc1nnc(-c2cccc([N+](=O)[O-])c2)s1 [1k] | 1.4 | 7 ± 5.8 | 113 ± 1.9 | -5.7 ± 12.9 | 15.6 ± 1.1 | 108 ± 16.8 | -49.3 ± 17.6 | -14.2 ± 13.2 | -28.3 ± 17.9 | 31.1 ± 2.7 | 12.5 ± 6.8 | – | – | – | – |
